In patent publication US9415017B2, “Bacterial ghosts for mediating innate immunity” (priority 2010, dated 2016):

Tests used:
[1] = test system: NO production in RAW 264.7 cells; assay: nitrite assay (Griess reaction) for NO production; assay type: cell-based, murine; conditions: for impact on BG-induced NO-generation: NO after 20 hours
Experimental: RAW 264.7 cells were seeded in 96 well plates and were cultured for two days. […] Thereafter, the bacterial ghost suspensions were removed by twice washing with PBS and the cells were incubated for another 20 hours in the dark at 37° C. 5% CO2. In order to investigate the stimulatory impact of pure LPS (Fluka; E. coli serotype 055:B5), long-term incubation experiments with various LPS concentrations were conducted for 20 hours.
As an indicater of NO production, nitrite concentration was measured in the supernatant of the macrophages by use of the Griess reaction (Green et al., 1982 Anal Biochem. 126(1): p. 131-8). In short, 100 μl of each supernatant was mixed with 90 μl 1% sulphanilamide (Fluka) in 5% H3PO4 and 90 μl of N-(1-Naphthyl) ethylene diamine dihydrochloride in water. The absorbance was determined at 550 nm with an ELISA reader (Tecan Sunrise).

[2] = test system: RAW 264.7 cells; assay: neutral red cytotoxicity assay; assay type: cell-based, murine
Text: The neutral red assay was used to test the impact of empty or RV-loaded BGs as well as the chemical per se on the viability of RAW 264.7 cells. Neutral red (3-amino-m-dimethylamino-2methyl-phenazine hydrochloride) selectivly accumulates in lysosomes of living cells (Repetto et al. 2008. Nat Protoc, 2008. 3(7): p. 1125-31) and provides therefore a quantitative assessment of viablitity.
Individual wells of 96-well plates were inoculated with 1.25×10^5 cells and were allowed to attach overnight. Macrophages were treated with 200 μl medium containing RV-loaded and unloaded BGs (all resuspended in sf-medium) in different BG to cell ratios (10, 100, 1000) or with RV alone for either 20 min followed by a 20 hour recovery period or 24 hours. The same conditions were performed with two RV-concentrations (15 μM and 30 μM). Triton X-100 (0.01%) served as a positive control and cells treated with test medium represent the negative control. After treatment, the cells were washed twice with PBS and were incubated either with culture medium for 20 hours or directly with 100 μl of NR (80 μg/ml final concentration) for another two hours (37° C.; 5% CO2). Thereafter, the dye was discarded and the wells were washed two times with PBS. Extraction of the dye was accomplished by addition of 100 μl of the acidic destaining solution (1 ml acetic acid, 73 ml 96% ethanol and 26 ml deionized water). The plates were shaken for 10 min and the developed color was measured by a plate reader (Dynex OpsysMR) at 570 nm (reference wavelength 690 nm).

## Oc1ccc(C=Cc2cc(O)cc(O)c2)cc1 [RV, resveratrol]
[1]; 0.3 μM and 0.3 μM RV with empty BGs at ratio 500, 20 min
  impact on BG-induced NO-generation: no impact
[1]; 30 μM RV with empty BGs at ratio 500, 20 min
  impact on BG-induced NO-generation: Statistically significant difference
[1]; BG to cell ratio of 100, RV-loaded ghosts or 3 μM RV with empty BGs
  reduction of nitrite compared to empty BGs alone: no effect
[1]; MOI of 1000, RV-ghosts or 3 μM RV coevally with empty BGs
  reduction of NO compared to empty BGs alone: reduction
[2]; 15 μM RV
  cell viability: no impact at all
[2]; 30 μM RV
  cell viability: 81.23 ± 10.6%
  loss of viability: 20%
[2]; short-term coincubation (20 min, measured after 20 hours)
  cell viability: no effects
